Data taken from the NIST ThermoML archive (doi:10.1016/j.tca.2013.10.017).

Test: xn = mol fraction of the nth substance listed
Conditions: for surface tension liquid-gas: Ring tensiometer; for mass density: 101 kPa, Liquid, Vibrating tube method

CCN(CC)CCO.Cl [2-(diethylamino)ethanol hydrochloride] + OCC(O)CO
x1 = 0.2
Conditions | mass density [kg/m3] | surface tension liquid-gas [mN/m]
298.15 K | 1205 | 58.94
303.15 K | 1202 | 58.33
308.15 K | 1199 | 57.63
313.15 K | 1196 | 56.99
318.15 K | 1193 | 56.39
323.15 K | 1188 | 55.73
328.15 K | 1187 | 55.16

CCN(CC)CCO.Cl [2-(diethylamino)ethanol hydrochloride] + OCCO
x1 = 0.25
Conditions | mass density [kg/m3] | surface tension liquid-gas [mN/m]
298.15 K | 1100 | 51.29
303.15 K | 1097 | 50.74
308.15 K | 1093 | 50.17
313.15 K | 1090 | 49.63
318.15 K | 1087 | 49.14
323.15 K | 1084 | 48.67
328.15 K | 1081 | 48.12

O=C(CO)[C@@H](O)[C@H](O)[C@H](O)CO [D-fructose] + C[N+](C)(C)CCO.[Cl-]
x2 = 0.67
Conditions | surface tension liquid-gas [mN/m]
298.15 K | 74.01
308.15 K | 71.98
318.15 K | 70.02
328.15 K | 68.03
338.15 K | 65.98
348.15 K | 64.02
358.15 K | 62.05

C[N+](C)(C)CCO.[Cl-] [choline chloride] + O=C[C@H](O)[C@@H](O)[C@H](O)[C@H](O)CO
x1 = 0.67
Conditions | surface tension liquid-gas [mN/m]
298.15 K | 71.71
308.15 K | 71.11
318.15 K | 70.42
328.15 K | 69.95
338.15 K | 69.44
348.15 K | 68.91
358.15 K | 68.61

C[N+](C)(C)CCO.[Cl-] [choline chloride] + OCC(O)CO
x1 = 0.33
Conditions | surface tension liquid-gas [mN/m]
298.15 K | 57.24
303.15 K | 56.85
308.15 K | 56.43
313.15 K | 55.93
318.15 K | 55.45
323.15 K | 55.03
328.15 K | 54.55

C[N+](C)(C)CCO.[Cl-] [choline chloride] + OCCO
x1 = 0.33
Conditions | mass density [kg/m3] | surface tension liquid-gas [mN/m]
298.15 K | 1118 | 48.91
303.15 K | 1116 | 48.43
308.15 K | 1112 | 47.97
313.15 K | 1110 | 47.5
318.15 K | 1106 | 47.03
323.15 K | 1104 | 46.67
328.15 K | 1101 | 46.11

C[P+](c1ccccc1)(c1ccccc1)c1ccccc1.[Br-] [methyltriphenylphosphonium bromide] + OCC(O)CO
x1 = 0.25
Conditions | surface tension liquid-gas [mN/m]
298.15 K | 59.35
303.15 K | 58.81
308.15 K | 58.2
313.15 K | 57.68
318.15 K | 57.06
323.15 K | 56.45
328.15 K | 55.95

C[P+](c1ccccc1)(c1ccccc1)c1ccccc1.[Br-] [methyltriphenylphosphonium bromide] + OCCO
x1 = 0.2
Conditions | mass density [kg/m3] | surface tension liquid-gas [mN/m]
298.15 K | 1289 | 47.51
303.15 K | 1286 | 47.06
308.15 K | 1282 | 46.57
313.15 K | 1278 | 46.12
318.15 K | 1275 | 45.59
323.15 K | 1271 | 45.12
328.15 K | 1267 | 44.64
